Experimental data: patent publication US6706750B1, “Indole derivatives process for their preparation, pharmaceutical compositions containing them and their medicinal application” (priority 1999, dated 2004)
Like-named read-outs stand apart in the source and are kept apart here.

What was measured:
5-HT2C receptor = molecular target: T1, 5-HT2C receptor (Homo sapiens, UniProt P28335); experiment: Radioligand binding to the 5-HT2C receptor ([3H]-5-HT, CHO cell line)
T1 construct: expressed in transfected cells; host or cells: CHO cell line
T1 sequence (P28335 33-458): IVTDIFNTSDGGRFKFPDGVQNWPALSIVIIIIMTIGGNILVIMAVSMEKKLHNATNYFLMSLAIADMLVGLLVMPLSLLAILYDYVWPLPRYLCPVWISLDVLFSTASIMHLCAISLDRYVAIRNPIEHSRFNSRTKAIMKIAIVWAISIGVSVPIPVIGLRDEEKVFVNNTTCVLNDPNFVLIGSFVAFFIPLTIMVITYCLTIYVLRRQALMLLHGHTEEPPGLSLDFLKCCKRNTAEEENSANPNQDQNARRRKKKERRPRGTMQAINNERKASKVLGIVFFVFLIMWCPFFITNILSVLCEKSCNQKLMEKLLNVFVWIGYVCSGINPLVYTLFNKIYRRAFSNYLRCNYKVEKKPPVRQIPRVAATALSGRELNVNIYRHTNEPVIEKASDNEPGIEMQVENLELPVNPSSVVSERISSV
Procedure: (§1) 1. Binding to Serotonin Receptors
(§2) The binding of compounds of formula (I) to serotonin receptors was determined in vitro by standard methods. The preparations were investigated in accordance with the assays given hereinafter.
Method (a): For the binding to the 5-HT2C receptor the 5-HT2C receptors were radiolabelled with [^3H]-5-HT. The affinity of the compounds for 5-HT2C receptors in a CHO cell line was determined according to the procedure of D. Hoyer, G. Engel and H.O. Kalkman, European J. Pharmacol., 1985, 118, 13-23.

human 5-HT2B receptors = molecular target: T2, human 5-HT2B receptors (Homo sapiens, UniProt P41595); experiment: Radioligand binding to the 5-HT2B receptor ([3H]-5-HT, CHO cell line)
T2 construct: expressed in transfected cells; host or cells: CHO cell line
T2 sequence (P41595 whole entry): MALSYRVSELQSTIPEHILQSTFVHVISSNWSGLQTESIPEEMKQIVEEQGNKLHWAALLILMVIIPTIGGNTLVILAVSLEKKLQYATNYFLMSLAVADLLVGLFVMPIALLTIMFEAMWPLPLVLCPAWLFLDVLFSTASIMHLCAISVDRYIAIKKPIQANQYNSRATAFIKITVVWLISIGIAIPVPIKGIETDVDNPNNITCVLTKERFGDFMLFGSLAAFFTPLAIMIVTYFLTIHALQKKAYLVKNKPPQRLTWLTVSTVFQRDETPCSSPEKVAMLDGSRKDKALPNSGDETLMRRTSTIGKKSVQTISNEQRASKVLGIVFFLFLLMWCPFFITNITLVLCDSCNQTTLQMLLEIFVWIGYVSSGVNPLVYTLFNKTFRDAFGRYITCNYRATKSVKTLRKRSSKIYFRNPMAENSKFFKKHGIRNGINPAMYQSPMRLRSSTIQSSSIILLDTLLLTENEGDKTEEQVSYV
Procedure: as §1, §2
Method (b): For the binding to the 5-HT2B receptor the 5-HT2B receptors were radiolabelled with [^3H]-5-HT. The affinity of the compounds for human 5-HT2B receptors in a CHO cell line was determined according to the procedure of K. Schmuck, C. Ullmer, P. Engels and H. Lubbert, FEBS Lett., 1994, 342, 85-90.

h5-HT2C = molecular target: T3, h5-HT2C (Homo sapiens, UniProt P28335); experiment: Functional activity, FLIPR calcium assay in CHO cells expressing h5-HT2C; format: cell-based; settings: for Emax: CHO, read-out: h5-HT2C Relative Efficacy; for EC50: FLIPR, CHO cells
T3 construct: expressed in transfected cells; host or cells: CHO cells
T3 sequence (P28335 33-458): T1 sequence (P28335 33-458)
Procedure: (§3) The functional activity of compounds of formula (I) was assayed using a Fluorimetric Imaging Plate reader (FLIPR) in the following manner.
(§4) CHO cells expressing either the h5-HT2C or h5-HT2A receptors were counted and plated into standard 96 well microtitre plates before the day of testing to give a confluent monolayer. The following day the cells were dye loaded with the calcium sensitive dye Fluo 3-AM by incubation with serum free culture maintenance media containing pluronic acid and Fluo 3-AM dissolved in DMSO at 37° C. in a CO2 incubator at 95% humidity for approximately 90 minutes. Unincorporated dye was removed by washing with Hanks balanced salt solution containing 20 mM HEPES and 2.5 mM probenecid (the assay buffer) using an automated cell washer to leave a total volume of 100 μL/well.
(§5) The drug (dissolved in 50 μL of assay buffer) was added at a rate of 70 μL/sec to each well of the FLIPR 96 well plate during fluorescence measurements. The measurements are taken at 1 sec intervals and the maximum fluorescent signal was measured (approx 10-15 secs after drug addition) and compared with the response produced by 10 μM 5-HT (defined as 100%) to which it is expressed as a percentage response (relative efficacy). Dose response curves were constructed using Graphpad Prism (Graph Software Inc.).

h5-HT2A receptors = molecular target: T4, h5-HT2A receptors (Homo sapiens, UniProt P28223); experiment: Functional activity, FLIPR calcium assay in CHO cells expressing h5-HT2A; format: cell-based; settings: for Emax: CHO, read-out: h5-HT2A Relative Efficacy; for EC50: FLIPR, CHO cells
T4 construct: expressed in transfected cells; host or cells: CHO cells
T4 sequence (P28223 whole entry): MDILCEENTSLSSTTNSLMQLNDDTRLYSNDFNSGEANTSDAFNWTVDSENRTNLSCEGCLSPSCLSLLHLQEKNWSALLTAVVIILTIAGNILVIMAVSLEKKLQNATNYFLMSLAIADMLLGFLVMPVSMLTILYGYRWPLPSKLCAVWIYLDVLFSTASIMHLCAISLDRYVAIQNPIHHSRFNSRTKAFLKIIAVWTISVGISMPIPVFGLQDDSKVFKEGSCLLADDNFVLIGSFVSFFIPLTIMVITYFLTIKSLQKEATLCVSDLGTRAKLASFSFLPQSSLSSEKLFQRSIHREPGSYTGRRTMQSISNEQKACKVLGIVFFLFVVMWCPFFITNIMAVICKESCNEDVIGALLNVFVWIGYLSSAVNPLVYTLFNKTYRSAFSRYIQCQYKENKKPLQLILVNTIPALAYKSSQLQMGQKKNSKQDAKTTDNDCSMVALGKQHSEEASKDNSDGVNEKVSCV
Procedure: as §3, §4, §5

5-HT2A receptor = molecular target: T5, 5-HT2A receptor (Homo sapiens, UniProt P28223); experiment: Radioligand binding to the 5-HT2A receptor ([125I]-DOI, CHO cell line)
T5 construct: expressed in transfected cells; host or cells: CHO cell line
T5 sequence (P28223 whole entry): as above
Procedure: as §1, §2
Method (c): For the binding to the 5-HT2A receptor the 5-HT2A receptors were radiolabelled with [^125I]-DOI. The affinity of the compounds for 5-HT2A receptors in a CHO cell line was determined according to the procedure of D. J. McKenna and S. J. Peroutka, J. Neurosci., 1989, 9/10, 3482-90.

[1] = cited from earlier work
[2] = cited from earlier work; remark: listed apart in the source
[3] = maximum fluorescent signal compared with 10 μM 5-HT (defined as 100%)
[4] = [3H]-5-HT, CHO cell line, read-out: Ki(2C)
[5] = [3H]-5-HT, human receptor, CHO cell line, read-out: Ki(2B)
[6] = [125I]-DOI, CHO cell line, read-out: Ki(2A)

C[C@H](N)Cn1c2c(c3ccccc31)CCC2 [Example 14, (S)-1-(1,2,3,4-tetrahydrocyclopent[b]indol-4-yl)-2-propylamine]
Ki (5-HT2C receptor): 64 nM
Ki (human 5-HT2B receptors): 180 nM
Emax (h5-HT2C; [3]): 80%
EC50 (h5-HT2C): 252 nM
Emax (h5-HT2A receptors; [3]): 48%
EC50 (h5-HT2A receptors): 6250 nM
Ki (5-HT2A receptor): 375 nM

C[C@H](N)Cn1c2c(c3cc(F)c(Cl)cc31)CCC2 [Example 16]
Emax (h5-HT2C; [3]): 86%
EC50 (h5-HT2C): 307 nM
Emax (h5-HT2A receptors; [3]): 0%

C[C@H](N)Cn1c2c(c3c(Cl)c(F)ccc31)CCC2 [Example 18, (S)-1-(8-chloro-7-fluoro-1,2,3,4-tetrahydrocyclopent[b]indol-4-yl)-2-propylamine]
Emax (h5-HT2C; [3]): 75%
EC50 (h5-HT2C): 36 nM
Emax (h5-HT2A receptors; [3]): 63%
EC50 (h5-HT2A receptors): 2100 nM

C[C@H](N)Cn1c2c(c3c(Cl)cc(Cl)cc31)CCC2 [Example 26]
Ki (5-HT2C receptor; [4]): 106 nM
Ki (human 5-HT2B receptors; [5]): 127 nM
Ki (5-HT2A receptor; [6]): 144 nM

CCSc1ccc2c3c(n(C[C@H](C)N)c2c1)CCC3 [Example 27]
Ki (5-HT2C receptor; [4]): 141 nM
Ki (human 5-HT2B receptors; [5]): 496 nM
Ki (5-HT2A receptor; [6]): 545 nM

C[C@@H](N)Cn1c2c(c3ccccc31)CCC2 [Example 30, (R)-1-(1,2,3,4-tetrahydrocyclopent[b]indol-4-yl)-2-propylamine]
Ki (5-HT2C receptor): 19 nM
Ki (human 5-HT2B receptors): 31 nM
Emax (h5-HT2C; [3]): 72%
EC50 (h5-HT2C): 90 nM
Emax (h5-HT2A receptors; [3]): 43%
EC50 (h5-HT2A receptors): 361 nM
Ki (5-HT2A receptor): 48 nM

C[C@H](N)Cn1c2c(c3ccc(F)cc31)CCC2 [Example 31]
Ki (5-HT2C receptor): 65 nM
Ki (human 5-HT2B receptors; [5]): 161 nM
Ki (5-HT2A receptor; [6]): 550 nM

CC(N)Cn1c2c(c3cc(F)c(F)cc31)CCC2 (centres unmarked) [Example 33]
Ki (5-HT2C receptor): 63 nM
Ki (human 5-HT2B receptors): 152 nM
Emax (h5-HT2C; [3]): 81%
EC50 (h5-HT2C): 316 nM
Emax (h5-HT2A receptors; [3]): 22%
Ki (5-HT2A receptor): 233 nM

COc1cc2c(cc1F)c1c(n2C[C@H](C)N)CCC1 [Example 37, (S)-1-(7-fluoro-6-methoxy-1,2,3,4-tetrahydrocyclopent[b]indol-4-yl)-2-propylamine]
Ki (5-HT2C receptor): 41 nM
Ki (human 5-HT2B receptors): 65 nM
Emax (h5-HT2C; [3]): 84%
EC50 (h5-HT2C): 127 nM
Emax (h5-HT2A receptors; [3]): 28%
EC50 (h5-HT2A receptors): 2990 nM
Ki (5-HT2A receptor): 86 nM

COc1c(F)ccc2c1c1c(n2C[C@H](C)N)CCC1 [Example 42, (S)-1-(7-fluoro-8-methoxy-1,2,3,4-tetrahydrocyclopent[b]indol-4yl)-2-propylamine]
Emax (h5-HT2C; [3]): 74%
EC50 (h5-HT2C): 87 nM
Emax (h5-HT2A receptors; [3]): 51%
EC50 (h5-HT2A receptors): 805 nM

C[C@@H](N)Cn1c2c(c3cccc(Cl)c31)CCC2 [Example 43]
Ki (5-HT2C receptor): 62 nM
Ki (human 5-HT2B receptors; [5]): 162 nM
melting point: 299 to 302 °C
Ki (5-HT2A receptor; [6]): 167 nM

FC(F)(F)c1cccc(N2CCNCC2)c1 [TFWPP, trifluoromethylphenylpiperazine]
food intake in rats [1]: reduce food intake

Clc1cccc(N2CCNCC2)c1 [mCPP, m-chlorophenylpiperazine]
food intake in rats [1]: reduce food intake
appetite and body weight of obese subjects ([2]; obese male and female subjects, subchronic treatment for 14 days): decreased the appetite and body weight
food intake in female volunteers ([2]; single injection, female volunteers): decreased food intake

(R)-1-(7-Fluoro-1,2,3,4-tetrahydro-6-methoxy-cyclopent[b]indol-4-yl)-2-propylamine, hemifumarate [Example 36]
EC50 (h5-HT2C): 189 nM
h5-HT2C Relative Efficacy (h5-HT2C; [3]): 64%
EC50 (h5-HT2A receptors): 1340 nM
h5-HT2A Relative Efficacy (h5-HT2A receptors; [3]): 25%
